This is an account of results in US20210122730A1, “GLUCOCORTICOID RECEPTOR MODULATORS” (ORIC Pharmaceuticals, Inc., priority 2017, published 2021).

The target in this experiment is T1, GR (Homo sapiens, UniProt P04150).
T1 construct: expressed in transfected cells; host or cells: CHO-K1
T1 sequence (P04150 1-777): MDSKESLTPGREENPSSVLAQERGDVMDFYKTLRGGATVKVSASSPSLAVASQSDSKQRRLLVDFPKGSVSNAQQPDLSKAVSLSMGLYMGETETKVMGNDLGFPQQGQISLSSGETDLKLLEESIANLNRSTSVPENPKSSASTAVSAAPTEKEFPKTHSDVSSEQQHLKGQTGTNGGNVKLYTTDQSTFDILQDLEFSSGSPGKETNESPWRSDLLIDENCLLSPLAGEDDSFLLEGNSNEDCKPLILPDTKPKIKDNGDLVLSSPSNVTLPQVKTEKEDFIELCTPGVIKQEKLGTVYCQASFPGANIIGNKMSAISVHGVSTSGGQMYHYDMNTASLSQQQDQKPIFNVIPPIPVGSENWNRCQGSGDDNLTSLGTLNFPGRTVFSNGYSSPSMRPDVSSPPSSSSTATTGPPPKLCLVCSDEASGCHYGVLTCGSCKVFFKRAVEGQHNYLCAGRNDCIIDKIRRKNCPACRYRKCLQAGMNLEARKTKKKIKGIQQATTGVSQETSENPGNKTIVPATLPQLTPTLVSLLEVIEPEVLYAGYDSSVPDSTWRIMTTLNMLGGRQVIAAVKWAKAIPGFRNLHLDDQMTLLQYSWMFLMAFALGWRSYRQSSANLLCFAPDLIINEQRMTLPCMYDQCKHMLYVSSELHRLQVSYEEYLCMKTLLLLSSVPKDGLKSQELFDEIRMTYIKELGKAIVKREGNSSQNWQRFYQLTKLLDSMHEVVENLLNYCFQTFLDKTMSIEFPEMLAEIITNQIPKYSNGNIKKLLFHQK
The experiment is described as follows: In Vitro GR Luciferase Reporter Assay (antagonist mode, CHO-K1-GR-MMTV-Luc reporter cells). In kind it is cell-based. To be noted: antagonist mode, 10 nM Dexamethasone. Put shortly:
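CHO-K1-GR-MMTV-Luc cells in phenol red-free DMEM with 10% CSS, stimulated with 10 nM dexamethasone (final) and treated with 8-point 1:5 compound dilutions for about 18-24 h at 37° C. Luciferase measured by OneGlo luminescence; IC50 derived for inhibition of GR activity.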
In general terms: Reporter assays use an easily measured gene product as a stand-in for the process of interest.
Broadly, the IC50 is the point on the concentration scale where inhibition reaches its midpoint. Low values mean higher potency, high ones lower potency. Take `CCn1ncc(S(=O)(=O)[C@H]2CCC3=Cc4c(cnn4-c4ccc(F)cc4)C[C@]3(C(=O)c3ccc(C4CC4)cn3)C2)n1` [Example 123, (5-cyclopropylpyridin-2-yl)((4aS,6S)-6-((2-ethyl-2H-1,2,3-triazol-4-yl)sulfonyl)-1-(4-fluorophenyl)-1,4,5,6,7,8-hexahydro-4aH-benzo[f]indazol-4a-yl)methanone]: the IC50 was at most 100 nM.

Turning to `CN([C@H]1CCC2=Cc3c(cnn3-c3ccc(F)cc3)C[C@]2(C(=O)c2ccc(C3CC3)cn2)C1)S(=O)(=O)c1ccc(F)cc1` [Example 124, N-((4aS,6S)-4a-(5-cyclopropylpicolinoyl)-1-(4-fluorophenyl)-4,4a,5,6,7,8-hexahydro-1H-benzo[f]indazol-6-yl)-4-fluoro-N-methylbenzenesulfonamide], the IC50 was at most 100 nM.

With `O=C(c1ccccn1)[C@]12Cc3cnn(-c4ccc(F)cc4)c3C=C1CC[C@](F)(S(=O)(=O)c1ccccc1)C2` [Example 125, ((4aS,6S)-6-fluoro-1-(4-fluorophenyl)-6-(phenylsulfonyl)-1,4,5,6,7,8-hexahydro-4aH-benzo[f]indazol-4a-yl)(pyridin-2-yl)methanone], the IC50 is at most 100 nM.

As for `CCn1ncc(S(=O)(=O)N(C)[C@H]2CCC3=Cc4c(cnn4-c4ccc(F)cc4)C[C@]3(C(=O)c3cc(C(F)(F)F)ccn3)C2)n1` [Example 126, 2-ethyl-N-((4aS,6S)-1-(4-fluorophenyl)-4a-(4-(trifluoromethyl)picolinoyl)-4,4a,5,6,7,8-hexahydro-1H-benzo[f]indazol-6-yl)-N-methyl-2H-1,2,3-triazole-4-sulfonamide], the IC50 is at most 100 nM.

For the compound `CCN([C@H]1CCC2=Cc3c(cnn3-c3ccc(F)cc3)C[C@]2(C(=O)c2nccs2)C1)S(=O)(=O)c1ccc(Cl)cc1` [Example 127, 4-chloro-N-ethyl-N-((4aS,6S)-1-(4-fluorophenyl)-4a-(thiazole-2-carbonyl)-4,4a,5,6,7,8-hexahydro-1H-benzo[f]indazol-6-yl)benzenesulfonamide], the IC50 was at most 100 nM.

Compound `CCN([C@H]1CCC2=Cc3c(cnn3-c3ccc(F)cc3)C[C@]2(C(=O)c2nccs2)C1)S(=O)(=O)c1ccc(F)cc1` [Example 128, N-ethyl-4-fluoro-N-((4aS,6S)-1-(4-fluorophenyl)-4a-(thiazole-2-carbonyl)-4,4a,5,6,7,8-hexahydro-1H-benzo[f]indazol-6-yl)benzenesulfonamide] yielded an IC50 of at most 100 nM.

For `CCn1ncc(S(=O)(=O)N(C)[C@H]2CCC3=Cc4c(cnn4-c4ccc(F)cc4)C[C@]3(C(=O)c3ccc(C(F)(F)F)cn3)C2)n1` [Example 129, 2-ethyl-N-((4aS,6S)-1-(4-fluorophenyl)-4a-(5-(trifluoromethyl)picolinoyl)-4,4a,5,6,7,8-hexahydro-1H-benzo[f]indazol-6-yl)-N-methyl-2H-1,2,3-triazole-4-sulfonamide], the half-maximal inhibitory concentration (IC50) was at most 100 nM.

In turn, `CCn1ncc(S(=O)(=O)N(C)[C@H]2CCC3=Cc4c(cnn4-c4ccc(F)cc4)C[C@]3(C(=O)c3ccc(C4CC4)cn3)C2)n1` [Example 130, N-((4aS,6S)-4a-(5-cyclopropylpicolinoyl)-1-(4-fluorophenyl)-4,4a,5,6,7,8-hexahydro-1H-benzo[f]indazol-6-yl)-2-ethyl-N-methyl-2H-1,2,3-triazole-4-sulfonamide] came in with an IC50 of at most 100 nM.

Regarding `CCN([C@H]1CCC2=Cc3c(cnn3-c3ccc(F)cc3)C[C@]2(C(=O)c2cc(C(F)(F)F)ccn2)C1)S(=O)(=O)c1cnn(CC)c1` [Example 132, N,1-diethyl-N-((4aS,6S)-1-(4-fluorophenyl)-4a-(4-(trifluoromethyl)picolinoyl)-4,4a,5,6,7,8-hexahydro-1H-benzo[f]indazol-6-yl)-1H-pyrazole-4-sulfonamide], the IC50 was at most 100 nM.

The compound `CN([C@H]1CCC2=Cc3c(cnn3-c3ccc(F)cc3)C[C@]2(C(=O)c2nccs2)C1)S(=O)(=O)c1cnn(C)c1` [Example 133, N-((4aS,6S)-1-(4-fluorophenyl)-4a-(thiazole-2-carbonyl)-4,4a,5,6,7,8-hexahydro-1H-benzo[f]indazol-6-yl)-N,1-dimethyl-1H-pyrazole-4-sulfonamide] had an IC50 of at most 100 nM.

Consider `CN([C@H]1CCC2=Cc3c(cnn3-c3ccc(F)cc3)C[C@]2(C(=O)c2ccc(C3CC3)cn2)C1)S(=O)(=O)c1ccn(C)n1` [Example 135, N-((4aS,6S)-4a-(5-cyclopropylpicolinoyl)-1-(4-fluorophenyl)-4,4a,5,6,7,8-hexahydro-1H-benzo[f]indazol-6-yl)-N,1-dimethyl-1H-pyrazole-3-sulfonamide], for which the IC50 was at most 100 nM.

As to `CCN([C@H]1CCC2=Cc3c(cnn3-c3ccc(F)cc3)C[C@]2(C(=O)c2ccc(C3CC3)cn2)C1)S(=O)(=O)c1cnn(C)c1` [Example 136, N-((4aS,6S)-4a-(5-cyclopropylpicolinoyl)-1-(4-fluorophenyl)-4,4a,5,6,7,8-hexahydro-1H-benzo[f]indazol-6-yl)-N-ethyl-1-methyl-1H-pyrazole-4-sulfonamide], the IC50 was at most 100 nM.

Compound `CN(c1ccc(F)cc1)S(=O)(=O)[C@H]1CCC2=Cc3c(cnn3-c3ccc(F)cc3)C[C@]2(C(=O)c2ccccn2)C1` [Example 137, (4aS,6S)-N,1-bis(4-fluorophenyl)-N-methyl-4a-picolinoyl-4,4a,5,6,7,8-hexahydro-1H-benzo[f]indazole-6-sulfonamide] gave an IC50 of at most 100 nM.

The compound `CN([C@H]1CCC2=Cc3c(cnn3-c3ccc(F)cc3)C[C@]2(C(=O)c2nccs2)C1)S(=O)(=O)c1ccn(C)n1` [Example 139, N-((4aS,6S)-1-(4-fluorophenyl)-4a-(thiazole-2-carbonyl)-4,4a,5,6,7,8-hexahydro-1H-benzo[f]indazol-6-yl)-N,1-dimethyl-1H-pyrazole-3-sulfonamide] registered an IC50 of at most 100 nM.

In turn, `Cn1cc(S(=O)(=O)N(C2CC2)[C@H]2CCC3=Cc4c(cnn4-c4ccc(F)cc4)C[C@]3(C(=O)c3ccc(C4CC4)cn3)C2)cn1` [Example 141, N-cyclopropyl-N-((4aS,6S)-4a-(5-cyclopropylpicolinoyl)-1-(4-fluorophenyl)-4,4a,5,6,7,8-hexahydro-1H-benzo[f]indazol-6-yl)-1-methyl-1H-pyrazole-4-sulfonamide] yielded an IC50 of at most 100 nM.

Regarding `CN([C@H]1CCC2=Cc3c(cnn3-c3ccc(F)cc3)C[C@]2(C(=O)c2nccs2)C1)S(=O)(=O)c1ccc(Cl)cc1` [Example 143, 4-chloro-N-((4aS,6S)-1-(4-fluorophenyl)-4a-(thiazole-2-carbonyl)-4,4a,5,6,7,8-hexahydro-1H-benzo[f]indazol-6-yl)-N-methylbenzenesulfonamide], the IC50 is at most 100 nM.

`CCN([C@H]1CCC2=Cc3c(cnn3-c3ccc(F)cc3)C[C@]2(C(=O)c2cc(C(F)(F)F)ccn2)C1)S(=O)(=O)c1cnn(C)n1` [Example 145, N-ethyl-N-((4aS,6S)-1-(4-fluorophenyl)-4a-(4-(trifluoromethyl)picolinoyl)-4,4a,5,6,7,8-hexahydro-1H-benzo[f]indazol-6-yl)-2-methyl-2H-1,2,3-triazole-4-sulfonamide] registered an IC50 of at most 100 nM.

Turning to `CN([C@H]1CCC2=Cc3c(cnn3-c3ccc(F)cc3)C[C@]2(C(=O)c2ccc(C3CC3)cn2)C1)S(=O)(=O)c1ccc(Cl)cc1` [Example 146, 4-chloro-N-((4aS,6S)-4a-(5-cyclopropylpicolinoyl)-1-(4-fluorophenyl)-4,4a,5,6,7,8-hexahydro-1H-benzo[f]indazol-6-yl)-N-methylbenzenesulfonamide], the IC50 was at most 100 nM.
